{
  "source": "patent US9822110B2",
  "about": "“Sulfonamide derivative and pharmaceutical use thereof” (EA Pharma Co., Ltd., priority 2013, dated 2017)",
  "data": [
    {"target": "T1, MAdCAM-1/α4β7 integrin (Homo sapiens, UniProt P13612+P26010)", "T1 construct": "a human B-cell line known to express α4β7 integrin; endogenous in cells; host or cells: RPMI-8866 (human B-cell line)", "T1 sequence (P13612 34-1032)": "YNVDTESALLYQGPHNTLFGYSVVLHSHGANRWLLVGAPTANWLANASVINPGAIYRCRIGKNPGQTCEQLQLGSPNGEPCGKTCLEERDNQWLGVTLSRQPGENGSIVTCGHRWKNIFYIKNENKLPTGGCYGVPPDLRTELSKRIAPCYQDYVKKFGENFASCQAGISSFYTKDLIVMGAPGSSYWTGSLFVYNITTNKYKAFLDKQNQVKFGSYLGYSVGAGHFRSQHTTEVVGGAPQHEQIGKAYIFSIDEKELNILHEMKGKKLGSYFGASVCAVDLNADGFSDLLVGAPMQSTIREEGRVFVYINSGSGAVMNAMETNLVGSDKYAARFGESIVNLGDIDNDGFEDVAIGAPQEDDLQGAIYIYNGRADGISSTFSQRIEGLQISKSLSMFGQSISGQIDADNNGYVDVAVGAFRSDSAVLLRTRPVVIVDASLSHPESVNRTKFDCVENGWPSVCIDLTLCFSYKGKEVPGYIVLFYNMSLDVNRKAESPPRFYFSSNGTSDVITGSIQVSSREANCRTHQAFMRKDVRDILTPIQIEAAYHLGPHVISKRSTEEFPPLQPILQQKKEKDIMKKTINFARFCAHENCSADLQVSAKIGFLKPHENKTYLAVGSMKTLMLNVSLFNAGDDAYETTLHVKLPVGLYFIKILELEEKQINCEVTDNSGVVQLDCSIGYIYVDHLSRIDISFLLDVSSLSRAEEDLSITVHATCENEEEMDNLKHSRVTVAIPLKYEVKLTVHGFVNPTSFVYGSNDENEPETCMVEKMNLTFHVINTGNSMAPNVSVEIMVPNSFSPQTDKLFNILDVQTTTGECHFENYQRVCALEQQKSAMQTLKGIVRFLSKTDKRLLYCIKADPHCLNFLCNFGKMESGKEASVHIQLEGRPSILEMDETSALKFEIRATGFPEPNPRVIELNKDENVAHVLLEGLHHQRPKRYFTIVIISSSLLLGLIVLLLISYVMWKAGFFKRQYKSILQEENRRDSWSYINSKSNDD", "T1 sequence (P26010 20-798)": "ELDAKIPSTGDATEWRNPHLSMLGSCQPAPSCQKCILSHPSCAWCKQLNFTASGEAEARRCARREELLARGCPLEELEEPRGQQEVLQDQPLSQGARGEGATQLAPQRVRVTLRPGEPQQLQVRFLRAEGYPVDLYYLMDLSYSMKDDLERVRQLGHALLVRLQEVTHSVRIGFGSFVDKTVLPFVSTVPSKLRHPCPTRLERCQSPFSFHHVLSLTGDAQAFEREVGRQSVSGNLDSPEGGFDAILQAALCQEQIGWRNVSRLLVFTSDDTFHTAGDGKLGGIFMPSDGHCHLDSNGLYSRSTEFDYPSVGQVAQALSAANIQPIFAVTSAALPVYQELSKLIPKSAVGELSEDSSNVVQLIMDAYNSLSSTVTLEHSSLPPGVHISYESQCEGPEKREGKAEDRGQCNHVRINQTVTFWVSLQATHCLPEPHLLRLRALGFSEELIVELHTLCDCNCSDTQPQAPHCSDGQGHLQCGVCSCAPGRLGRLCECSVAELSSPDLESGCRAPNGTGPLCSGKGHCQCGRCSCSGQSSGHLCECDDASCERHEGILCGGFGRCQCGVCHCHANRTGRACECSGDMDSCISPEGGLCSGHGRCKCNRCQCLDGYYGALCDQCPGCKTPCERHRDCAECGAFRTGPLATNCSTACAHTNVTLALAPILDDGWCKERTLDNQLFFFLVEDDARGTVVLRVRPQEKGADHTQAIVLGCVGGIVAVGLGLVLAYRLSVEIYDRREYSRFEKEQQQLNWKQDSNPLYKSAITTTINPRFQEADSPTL", "experiment": "Evaluation test (1) for MAdCAM-1/α4β7 integrin binding inhibitory activity in the presence of serum (RPMI-8866 cell binding to MAdCAM-1/Fc)", "assay_type": "cell-based", "conditions": "RPMI-8866 cells, recombinant mouse MAdCAM-1/Fc, human serum at final concentration of 50%; read-out: α4β7 Serum Activity rank when α4β7 serum was added", "experimental": "The selectivity was determined by dividing the IC50 value in the evaluation test for VCAM-1/α4β1 integrin binding inhibitory activity by the IC50 value in the evaluation test for MAdCAM-1/α4β7 integrin binding inhibitory activity. • (3) Evaluation Test (1) for MAdCAM-1/α4β7 Integrin Binding Inhibitory Activity in the Presence of Serum\nThe ability of test substances to inhibit the binding of RPMI-8866 cell line, a human B-cell line known to express α4β7 integrin, to MAdCAM-1 was examined.\nA 96-well microtiter plate was coated overnight at 4° C. with a recombinant mouse MAdCAM-1/Fc (R&D systems) solution diluted with the buffer A (carbonate buffer, pH 9.6). After washing once with PBS, 150 μL/well of Block Ace (manufactured by Snow Brand Milk Products Co., Ltd.) was added, and it was incubated at room temperature for 2 hours. After removal, it was washed once with PBS.\n100 μL of each of test substances and RPMI-8866 cells diluted with a binding buffer solution (DMEM containing 40 mM HEPES, 0.2% BSA, and 4 mM MnCl2) to various concentrations was added to the plate coated with MAdCAM-1/Fc, so that human serum was contained at a final concentration of 50%, and it was incubated at 30° C. for 15 minutes to 60 minutes. After the cells were bound to the wells, unbound cells were removed by washing with PBS. 50 μL/well of the buffer solution C (PBS containing 1.5% Triton X-100) was added to the plate to dissolve the bound RPMI-8866 cells. 30 μL of substrate buffer (Promega, CytoTox 96 Non-Radioactive Cytotoxicity Assay) was added to 30 μL of a cell lysate to allow a reaction for 30 minutes at room temperature in a dark place. 30 μL of stop solution (Promega, CytoTox 96 Non-Radioactive Cytotoxicity Assay) was added thereto to determine the absorbance at 490 nm using a plate reader. The absorbance was obtained herein by detecting the activity of lactate dehydrogenase (LDH) eluted in a supernatant of each well, that is, the absorbance is proportional to the number of RPMI-8866 cells remaining on the plate by being bound to MAdCAM-1. The test was duplicated, and the cell binding rate at various concentrations with the absorbance of the well containing no test substance being taken as 100% was determined, to calculate the concentration IC50 at which 50% of binding was inhibited.", "units": {"IC50": "nM"}, "values": [
      {"molecule": "Cn1c(=O)n(-c2ccc(C[C@H](NC(=O)c3cc(F)c(NS(=O)(=O)c4ccc(-c5cnc(C6CCOCC6)nc5)cc4)cc3F)C(=O)O)nc2)c(=O)c2ccncc21", "note": "[Example 27, (2S)-2-[[2,5-Difluoro-4-[[4-(2-tetrahydropyran-4-ylpyrimidin-5-yl)phenyl]sulfonylamino]benzoyl]amino]-3-[5-(1-methyl-2,4-dioxo-pyrido[3,4-d]pyrimidin-3-yl)-2-pyridyl]propionic acid]", "IC50": "50 to 200"},
      {"molecule": "Cc1c(-c2ccc(C[C@H](NC(=O)c3cc(F)c(NS(=O)(=O)c4ccco4)cc3F)C(=O)O)cc2)c(=O)n(C)c(=O)n1C", "note": "[Example 38, (2S)-2-[[2,5-Difluoro-4-(2-furylsulfonylamino)benzoyl]amino]-3-[4-(1,3,4-trimethyl-2,6-dioxo-pyrimidin-5-yl)phenyl]propanoic acid]", "IC50": "10 to 50"},
      {"molecule": "COCc1cn(-c2ccc(S(=O)(=O)Nc3cc(F)c(C(=O)N[C@@H](Cc4ccc(-n5c(=O)c6ccncc6n(C)c5=O)cn4)C(=O)O)cc3F)cc2)nn1", "note": "[Example 29, (2S)-2-[[2,5-Difluoro-4-[[4-[4-(methoxymethyl)triazol-1-yl]phenyl]sulfonylamino]benzoyl]amino]-3-[5-(1-methyl-2,4-dioxo-pyrido[3,4-d]pyrimidin-3-yl)-2-pyridyl]propanoic acid]", "IC50": "50 to 200"},
      {"molecule": "Cc1c(-c2ccc(C[C@H](NC(=O)c3cc(F)c(NS(=O)(=O)c4ccc(-c5cnc(COC(C)C)nc5)cc4)cc3F)C(=O)O)cc2)c(=O)n(C)c(=O)n1C", "note": "[Example 40, (2S)-2-[[2,5-Difluoro-4-[[4-[2-(isopropoxymethyl)pyrimidin-5-yl]phenyl]sulfonylamino]benzoyl]amino]-3-[4-(1,3,4-trimethyl-2,6-dioxo-pyrimidin-5-yl)phenyl]propanoic acid]", "IC50": "50 to 200"},
      {"molecule": "CC(C)OCc1ncc(-c2ccc(S(=O)(=O)Nc3cc(F)c(C(=O)N[C@@H](Cc4ccc(-n5c(=O)c6cncnc6n(C)c5=O)cn4)C(=O)O)cc3F)cc2)cn1", "note": "[Example 43, (2S)-2-[[2,5-Difluoro-4-[[4-[2-(isopropoxymethyl)pyrimidin-5-yl]phenyl]sulfonylamino]benzoyl]amino]-3-[5-(1-methyl-2,4-dioxo-pyrimido[4,5-d]pyrimidin-3-yl)-2-pyridyl]propanoic acid]", "IC50": "> 200"},
      {"molecule": "Cn1c(=O)n(-c2ccc(C[C@H](NC(=O)c3cc(F)c(NS(=O)(=O)c4ccc(-c5ccnc(C6CCOCC6)c5)cn4)cc3F)C(=O)O)nc2)c(=O)c2ccncc21", "note": "[Example 34, (2S)-2-[[2,5-Difluoro-4-[[5-(2-tetrahydropyran-4-yl-4-pyridyl)-2-pyridyl]sulfonylamino]benzoyl]amino]-3-[5-(1-methyl-2,4-dioxo-pyrido[3,4-d]pyrimidin-3-yl)-2-pyridyl]propanoic acid]", "IC50": "10 to 50"},
      {"molecule": "Cc1c(-c2ccc(C[C@H](NC(=O)c3cc(F)c(NS(=O)(=O)c4ccc(-c5cnc(N6CCC6)nc5)cc4)cc3F)C(=O)O)cc2)c(=O)n(C)c(=O)n1C", "note": "[Example 36, (2S)-2-[[4-[[4-[2-(Azetidin-1-yl)pyrimidin-5-yl]phenyl]sulfonylamino]-2,5-difluoro-benzoyl]amino]-3-[4-(1,3,4-trimethyl-2,6-dioxo-pyrimidin-5-yl)phenyl]propanoic acid]", "IC50": "50 to 200"},
      {"molecule": "COc1cc2c(=O)n(-c3ccc(C[C@H](NC(=O)c4cc(F)c(NS(=O)(=O)c5ccc(-c6cnc(COC(C)C)nc6)cc5)cc4F)C(=O)O)nc3)c(=O)n(C)c2cn1", "note": "[Example 41, (2S)-2-[[2,5-Difluoro-4-[[4-[2-(isopropoxymethyl)pyrimidin-5-yl]phenyl]sulfonylamino]benzoyl]amino]-3-[5-(6-methoxy-1-methyl-2,4-dioxo-pyrido[3,4-d]pyrimidin-3-yl)-2-pyridyl]propanoic acid]", "IC50": "> 200"},
      {"molecule": "CCc1ncc(-c2ccc(S(=O)(=O)Nc3c(F)c(F)c(C(=O)N[C@@H](Cc4ccc(-c5c(C)n(C)c(=O)n(C)c5=O)cc4)C(=O)O)c(F)c3F)cc2)cn1", "note": "[Example 45, (2S)-2-[[4-[[4-(2-Ethylpyrimidin-5-yl)phenyl]sulfonylamino]-2,3,5,6-tetrafluoro-benzoyl]amino]-3-[4-(1,3,4-trimethyl-2,6-dioxo-pyrimidin-5-yl)phenyl]propanoic acid]", "IC50": "10 to 50"},
      {"molecule": "Cc1c(-c2ccc(C[C@H](NC(=O)c3cc(F)c(NS(=O)(=O)c4ccc(-c5cnc(C6CCOCC6)nc5)cc4)cc3F)C(=O)O)cc2)c(=O)n(C)c(=O)n1C", "note": "[Example 86, (2S)-2-[[2,5-Difluoro-4-[[4-(2-tetrahydropyran-4-ylpyrimidin-5-yl)phenyl]sulfonylamino]benzoyl]amino]-3-[4-(1,3,4-trimethyl-2,6-dioxopyrimidin-5-yl)phenyl]propanoic acid]", "IC50": "10 to 50"},
      {"molecule": "CC(C)OCc1ncc(-c2ccc(S(=O)(=O)Nc3cc(F)c(C(=O)N[C@@H](Cc4ccc(-n5c(=O)c6ccncc6n(C)c5=O)cc4)C(=O)O)cc3F)cc2)cn1", "note": "[Example 85]", "IC50": "10 to 50"},
      {"molecule": "Cc1c(-c2ccc(C[C@H](NC(=O)c3c(F)cc(NS(=O)(=O)c4ccc(C(=O)NC5CC5)cc4)cc3F)C(=O)O)cc2)c(=O)n(C)c(=O)n1C", "note": "[Example 47]", "IC50": "10 to 50"},
      {"molecule": "Cc1c(-c2ccc(C[C@H](NC(=O)c3cc(F)c(NS(=O)(=O)c4ccc(-c5cnc(C(C)C)nc5)cc4)cc3F)C(=O)O)cc2)c(=O)n(C)c(=O)n1C", "note": "[Example 88]", "IC50": "50 to 200"},
      {"molecule": "Cc1c(-c2ccc(C[C@H](NC(=O)c3cc(F)c(NS(=O)(=O)c4ccc(-c5cnc(C6CCOCC6)nc5)cc4)cc3F)C(=O)O)nc2)c(=O)n(C)c(=O)n1C", "note": "[Example 89, (2S)-2-[[2,5-Difluoro-4-[[4-(2-tetrahydropyran-4-ylpyrimidin-5-yl)phenyl]sulfonylamino]benzoyl]amino]-3-[5-(1,3,4-trimethyl-2,6-dioxopyrimidin-5-yl)-2-pyridyl]propanoic acid]", "IC50": "> 200"}
    ]}
  ]
}
